Activity calls are given as the source filed them.
How the values were obtained:
[1] = target: Glyceraldehyde-3-phosphate dehydrogenase (Homo sapiens, UniProt P04406)
Bcl-2-related protein A1 [2] = target: T1, Bcl-2-related protein A1 (Mus musculus, UniProt Q07440); assay: Bfl-1 inhibitors blocking BH3 peptide binding, confirmation, biochemical, TR-FRET, mouse Bfl-1 (AID 621);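 note: TR-FRET binding of GST-Bfl-1 to FITC-labelled Bid peptide via terbium antibody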
T1 sequence (Q07440 whole entry): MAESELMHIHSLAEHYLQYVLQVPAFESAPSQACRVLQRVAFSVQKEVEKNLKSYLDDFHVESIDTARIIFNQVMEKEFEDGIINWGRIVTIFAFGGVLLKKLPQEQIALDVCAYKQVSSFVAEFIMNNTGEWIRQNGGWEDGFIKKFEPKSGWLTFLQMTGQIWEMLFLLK

Bcl-2-related protein A1 [3] = target: T1, Bcl-2-related protein A1; assay: Bfl-1 binding inhibitors, SAR follow-up, biochemical, fluorescence polarization (AID 1070)
[4] = HEp-2 cell cytotoxicity, dose response, cytotoxicity control for RSV inhibitor project, HTS (AID 2410); assay type: functional; conditions: human respiratory syncytial virus
Protein skinhead-1 = target: T2, Protein skinhead-1 (Caenorhabditis elegans, UniProt P34707); assay type: functional
T2 sequence (P34707 whole entry): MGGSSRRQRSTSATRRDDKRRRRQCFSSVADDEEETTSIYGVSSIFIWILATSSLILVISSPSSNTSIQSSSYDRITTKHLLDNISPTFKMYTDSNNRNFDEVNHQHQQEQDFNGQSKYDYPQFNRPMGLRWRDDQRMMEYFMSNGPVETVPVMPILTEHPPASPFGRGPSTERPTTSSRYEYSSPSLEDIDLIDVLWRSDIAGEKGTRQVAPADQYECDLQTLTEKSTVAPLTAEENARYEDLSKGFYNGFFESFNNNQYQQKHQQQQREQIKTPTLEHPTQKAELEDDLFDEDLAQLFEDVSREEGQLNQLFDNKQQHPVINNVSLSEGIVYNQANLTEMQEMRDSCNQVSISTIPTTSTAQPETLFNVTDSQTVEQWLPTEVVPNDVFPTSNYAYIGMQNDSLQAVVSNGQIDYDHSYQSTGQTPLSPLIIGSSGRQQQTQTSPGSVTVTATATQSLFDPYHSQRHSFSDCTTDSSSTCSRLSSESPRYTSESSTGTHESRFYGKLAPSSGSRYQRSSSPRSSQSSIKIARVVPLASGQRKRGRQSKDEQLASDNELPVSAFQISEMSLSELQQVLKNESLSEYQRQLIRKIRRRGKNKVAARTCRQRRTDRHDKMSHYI

[5] = Luminescence-based cell-based high throughput dose response assay to identify activators of the DAF-12 from the parasite S. stercoralis (ssDAF-12).; assay type: functional
[6] = target: T3, Oxysterols receptor LXR-beta (Homo sapiens, UniProt P55055); assay: LXR agonists, Gal4 luciferase reporter, dose response, counter-screen for ssDAF-12 agonist project, cell-based, luminescence, HEK293, S. stercoralis campaign (AID 720737); assay type: functional; conditions: read-out: IC50 (the source's name)
T3 sequence (P55055 whole entry): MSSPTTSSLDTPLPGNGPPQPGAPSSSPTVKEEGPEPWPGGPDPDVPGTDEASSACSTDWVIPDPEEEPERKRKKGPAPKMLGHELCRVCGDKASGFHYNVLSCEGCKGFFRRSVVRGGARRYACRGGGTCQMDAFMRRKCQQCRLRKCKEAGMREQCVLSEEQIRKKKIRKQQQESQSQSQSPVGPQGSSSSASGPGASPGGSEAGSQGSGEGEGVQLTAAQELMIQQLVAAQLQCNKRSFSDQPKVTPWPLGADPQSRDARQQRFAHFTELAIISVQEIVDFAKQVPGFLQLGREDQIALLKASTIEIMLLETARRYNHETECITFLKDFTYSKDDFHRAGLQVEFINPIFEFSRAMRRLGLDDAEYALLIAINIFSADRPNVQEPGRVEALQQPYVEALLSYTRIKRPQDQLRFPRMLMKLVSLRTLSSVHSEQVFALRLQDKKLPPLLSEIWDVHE

[7] = target: T3, Oxysterols receptor LXR-beta; assay type: functional, cell-based
cells [8] = assay: cells
[9] = Concentration-dependent survival of SW480 colon cancer line, luminescence detection with CellTiter-Glo, half-maximal inhibitory concentration (AID 1117338); assay type: functional
[10] = RKO cell viability reduction, dose response, CellTiter-Glo luminescence (AID 1117322); assay type: functional
[11] = cytotoxicity toward HCT116 cells – cell-based, CellTiter-Glo luminescence, IC50, dose response (AID 1117332); assay type: functional; conditions: HCT-116
[12] = SNU-C1 cell viability reduction, dose response, CellTiter-Glo luminescence (AID 1117323); assay type: functional, cell-based
[13] = cytotoxicity toward Colo320 cells – cell-based, CellTiter-Glo luminescence, IC50, dose response (AID 1117334); assay type: functional; conditions: COLO 320
[14] = cytotoxicity toward HT-29 cells – cell-based, CellTiter-Glo luminescence, IC50, dose response (AID 1117330); assay type: functional
[15] = CellTiter-Glo luminescent dose response of DLD-1 viability loss (AID 1117352); assay type: functional
[16] = inhibitors of Vif binding to APOBEC3G peptide, primary screen, biochemical, TR-FRET, GST-Vif 1-94, biotin-A3G peptide, dose response retest (AID 1117319); assay type: functional;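 note: TR-FRET signal of purified GST-Vif binding a biotinylated A3G peptide; inhibitors lower the FRET signal by blocking Vif and A3G binding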
[17] = target: T4, Tyrosine-protein phosphatase non-receptor type 7 (Homo sapiens, UniProt P35236); assay: inhibitors of human HePTP phosphatase, […], biochemical, absorbance, leukemia target (AID 521); assay type: functional
T4 sequence (P35236 whole entry): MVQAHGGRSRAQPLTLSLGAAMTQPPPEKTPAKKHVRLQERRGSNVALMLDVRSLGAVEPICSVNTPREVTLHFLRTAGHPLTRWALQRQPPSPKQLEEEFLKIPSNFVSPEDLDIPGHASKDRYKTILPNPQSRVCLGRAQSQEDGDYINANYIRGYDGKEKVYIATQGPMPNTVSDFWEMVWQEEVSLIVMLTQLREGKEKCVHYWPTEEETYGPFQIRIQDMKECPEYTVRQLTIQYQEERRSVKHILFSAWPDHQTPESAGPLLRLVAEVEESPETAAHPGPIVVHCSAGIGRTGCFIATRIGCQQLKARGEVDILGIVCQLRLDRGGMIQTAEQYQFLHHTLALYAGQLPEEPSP

[18] = HeLa 2N DNA content increase, dose response, cell-based, IC50 (AID 1117349); assay type: functional
[19] = HeLa 4N DNA content increase, dose response, cell-based, IC50 (AID 1117351); assay type: functional
[20] = inhibitors of intracellular T. cruzi replication, confirmation, NIH3T3 host cells, beta-gal luminescence (AID 2044); assay type: functional, cell-based;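 note: intracellular parasites grown in NIH/3T3 mouse fibroblasts as host cells; luminescent beta-galactosidase reporter signal from transgenic T. cruzi replicating inside host cells; inhibitors lower the luminescence signal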
[21] = cytotoxicity toward NIH3T3 fibroblasts, dose response, counter-screen, cell-based, ATP luminescence, mouse fibroblasts (AID 2010); assay type: functional;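 note: cells exposed to compound for about 90 hours before reading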
cells [22] = assay: cells; remark: listed apart in the source
[23] = NIH-3T3 fibroblast cytotoxicity, dose response, cytotoxicity control, cell-based, fluorescence, Alamar Blue, secondary assay (AID 2327); assay type: functional;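 note: NIH-3T3 mouse fibroblasts cultured with fluconazole at 8 µg/mL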
[24] = microbe, parasite or virus in culture; assay type: functional; conditions: Mycobacterium tuberculosis
[25] = target: T5, Microphthalmia-associated transcription factor (Homo sapiens, UniProt O75030); assay: TRPM1 promoter luciferase signal decrease, dose response, MITF inhibitor project, cell-based, SK-MEL-5, cherry-picked, set 3 (AID 493073); assay type: functional
T5 sequence (O75030 whole entry): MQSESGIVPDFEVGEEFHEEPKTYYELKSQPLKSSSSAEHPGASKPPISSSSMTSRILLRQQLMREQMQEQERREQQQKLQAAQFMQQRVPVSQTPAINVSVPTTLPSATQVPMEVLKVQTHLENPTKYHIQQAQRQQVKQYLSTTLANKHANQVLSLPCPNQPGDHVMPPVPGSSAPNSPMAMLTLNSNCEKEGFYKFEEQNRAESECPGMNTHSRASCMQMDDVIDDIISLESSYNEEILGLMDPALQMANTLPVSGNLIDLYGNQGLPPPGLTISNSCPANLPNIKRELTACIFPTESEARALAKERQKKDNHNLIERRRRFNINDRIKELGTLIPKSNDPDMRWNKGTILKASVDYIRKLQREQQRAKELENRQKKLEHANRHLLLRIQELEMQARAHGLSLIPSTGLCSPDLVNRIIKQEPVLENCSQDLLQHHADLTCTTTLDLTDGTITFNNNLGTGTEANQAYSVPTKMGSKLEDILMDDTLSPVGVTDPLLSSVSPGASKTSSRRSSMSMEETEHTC

INS1 = assay: beta cell apoptosis inhibitors, cytokine rescue, dose response, luminescence, retest (AID 449756); assay type: functional, cell-based; conditions: Rattus norvegicus;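 note: cell death triggered by IL-1 beta plus TNF-alpha plus IFN-gamma mixture; protective hits raise ATP signal compared with cytokine alone wells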
[26] = ADAM10 inhibitors, peptide cleavage, dose response, biochemical, QFRET (AID 743254);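 note: ADAM10 enzyme with the DM2 quenched FRET peptide as substrate; EDANS fluorescence gain as the protease cuts the substrate; inhibitor potency against ADAM10 proteolytic activity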
[27] = target: Disintegrin and metalloproteinase domain-containing protein 17 (Homo sapiens, UniProt P78536); assay: ADAM17 protease inhibitors, dose response, counter-screen for ADAM10 exosite inhibitor project, biochemical, quenched FRET substrate (AID 743253)
[28] = cytotoxicity in HPDE-C7 cells, cell-based, fluorescence, HTS (AID 430); assay type: functional; conditions: Homo sapiens
[29] = cytotoxicity in KRAS-transformed pancreatic duct cells, primary screen, cell-based, fluorescence, HTS (AID 431); assay type: functional; conditions: Homo sapiens;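 note: cell line used: HPDE-C7K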

Sequence of Glyceraldehyde-3-phosphate dehydrogenase (P04406 whole entry): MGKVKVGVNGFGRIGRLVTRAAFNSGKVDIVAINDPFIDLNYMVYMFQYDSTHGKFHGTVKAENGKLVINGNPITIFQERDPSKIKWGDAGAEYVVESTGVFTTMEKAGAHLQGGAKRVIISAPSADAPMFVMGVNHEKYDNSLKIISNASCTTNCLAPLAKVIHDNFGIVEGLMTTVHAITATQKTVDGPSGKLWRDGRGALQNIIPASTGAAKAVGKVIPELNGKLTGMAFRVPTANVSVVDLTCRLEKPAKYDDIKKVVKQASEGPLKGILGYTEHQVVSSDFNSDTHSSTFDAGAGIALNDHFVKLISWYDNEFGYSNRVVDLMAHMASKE
Sequence of Disintegrin and metalloproteinase domain-containing protein 17 (P78536 whole entry, the tested form may be a part): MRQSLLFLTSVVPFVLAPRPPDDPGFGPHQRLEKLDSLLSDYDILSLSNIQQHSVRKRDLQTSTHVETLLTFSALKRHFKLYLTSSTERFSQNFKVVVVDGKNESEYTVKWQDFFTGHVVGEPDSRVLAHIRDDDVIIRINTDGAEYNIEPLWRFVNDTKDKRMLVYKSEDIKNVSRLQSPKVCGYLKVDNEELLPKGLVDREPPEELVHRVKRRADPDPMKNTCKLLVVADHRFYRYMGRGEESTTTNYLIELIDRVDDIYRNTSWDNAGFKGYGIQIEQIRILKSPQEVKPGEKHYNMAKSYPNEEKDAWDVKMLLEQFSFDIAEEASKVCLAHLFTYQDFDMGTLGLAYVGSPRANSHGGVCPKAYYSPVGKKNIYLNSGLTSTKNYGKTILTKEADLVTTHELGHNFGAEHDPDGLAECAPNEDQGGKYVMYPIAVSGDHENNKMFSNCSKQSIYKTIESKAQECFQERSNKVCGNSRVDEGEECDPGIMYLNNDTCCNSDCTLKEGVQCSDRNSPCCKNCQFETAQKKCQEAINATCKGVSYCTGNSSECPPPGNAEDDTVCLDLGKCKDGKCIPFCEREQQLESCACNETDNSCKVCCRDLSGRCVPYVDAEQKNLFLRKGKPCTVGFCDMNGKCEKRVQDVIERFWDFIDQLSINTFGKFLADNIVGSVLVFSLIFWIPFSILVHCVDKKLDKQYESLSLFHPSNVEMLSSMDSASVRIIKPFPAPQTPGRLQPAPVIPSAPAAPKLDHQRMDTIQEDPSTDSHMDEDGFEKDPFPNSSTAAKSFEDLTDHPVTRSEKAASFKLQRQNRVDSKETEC

Q: Which results are given for Cc1ccc(Cl)c(N2C(=O)C(Cl)=C(N3CCOCC3)C2=O)c1Cl?
A: IC50 [1]: > 10 µM (inconclusive); IC50 (Bcl-2-related protein A1 [2]): > 100 µM (not active); IC50 (Bcl-2-related protein A1 [3]): > 100 µM (not active)

Q: What does the source list for Cc1cccc(Nc2nc(-c3cccs3)cs2)n1?
A: CC50 [4]: 9.85 µM (active); IC50 (Protein skinhead-1): > 100 µM (inactive); IC50 [5]: > 67.5 µM (inactive); EC50 [6]: > 67.5 µM (inactive); EC50 [7]: > 67.5 µM (inactive); EC50 (cells [8]): > 67.5 µM (inactive)

Q: What does the source list for Cc1c(C)c2c(c(C)c1O)CC[C@@](C)(CCC[C@H](C)CCC[C@H](C)CCCC(C)C)O2 [alpha-TOCHOPHEROL]?
A: IC50 [9]: > 20 µM (inactive); IC50 [10]: 2.61 µM (active); IC50 [11]: > 20 µM (inactive); IC50 [12]: > 20 µM (inactive); IC50 [13]: > 20 µM (inactive); IC50 [14]: > 20 µM (inactive); IC50 [15]: > 20 µM (inactive)

Q: Which IC50 [16] does the source give for O=C(O)c1ccc(S(=O)(=O)c2ccc3c(c2)C(=O)N(Cc2ccco2)C3=O)cc1 here?
A: The IC50 was > 100 µM (active).

Q: For Cn1c(=O)oc2cc(S(=O)(=O)N3CCCC(C(=O)N4CCn5c4nc4ccccc45)C3)ccc21 (stereo not given), which IC50 [17] is on record?
A: The IC50 was > 100 µM (not active).

Q: Which IC50 [18] does the source give for COc1ccc(/C=C/C(=O)c2ccc(OC)cc2OC)cc1 here?
A: The IC50 was > 10 µM (inactive).

Q: What about the IC50 [19] of the same compound?
A: The IC50 was > 10 µM (inactive).

Q: Which EC50 [20] does the source give for Clc1ccc(SCCOCCN2CCc3ccccc3C2)cc1 here?
A: The EC50 was < 0.1 µM (active).

Q: And the EC50 [21]?
A: The EC50 was > 60 µM (not active).

Q: What about the EC50 (cells [22]) of the same compound?
A: Its EC50 is 0.081 µM (active).

Q: For CCOc1ccc(-[n+]2c(-c3ccc(Br)cc3)cn3c2CCCCC3)cc1, which EC50 [23] is on record?
A: Its EC50 is > 160 µM (inactive).

Q: And the EC50 [20]?
A: Its EC50 is < 0.1 µM (active).

Q: And the CC50 [24]?
A: Its CC50 is 21.2 µM (active).

Q: What about the EC50 [21] of the same compound?
A: The EC50 was > 60 µM (not active).

Q: What about the AC50 [25] of the same compound?
A: The AC50 was 3.87 µM (active).

Q: And the AC50 (INS1)?
A: The AC50 was 1.07 µM (active).

Q: What about the EC50 (cells [22]) of the same compound?
A: Its EC50 is 0.073 µM (active).

Q: Which results are given for Cc1ccc(-n2c(Cc3cccs3)nnc2SCC(=O)Nc2ccc(OCc3ccccc3)cc2)cc1?
A: IC50 [26]: > 69.5 µM (inactive); IC50 [27]: > 69.5 µM (inactive)

Q: Which IC50 [16] does the source give for CN(C)c1ccc(/C=N\NC(=O)c2csnn2)cc1 here?
A: Its IC50 is > 100 µM (active).

Q: Which results are given for Cc1ccc(C(=O)Nc2cccc(C(=O)NCc3ccccc3)c2)o1?
A: EC50 [28]: 16.6 µM (active); EC50 [29]: 12.4 µM (active)

From ChEMBL document CHEMBL1201862, “PubChem BioAssay data set” (2004)
